Results on 37 molecules are retold here after PubChem BioAssay (NCI).

The structures appear in SMILES notation.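 Five compound concentrations were applied to cells in 96-well plates for 48 hours; endpoints were derived by simple linear interpolation of the resulting dose-response curve. GI50: concentration for 50% inhibition of growth. TGI marks complete inhibition of growth.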

The assay has as its system MDA-MB-468 breast. As to the kind of experiment: NCI tumour cell line growth inhibition, 48 h.
In the case of `CC(C)c1[nH]nc2c(NCc3ccc(-c4ccccn4)cc3)nc(SCCN)nc12`, the GI50 was 0.00335 µM and the TGI amounted to 0.0127 µM.
`COc1c(B(O)O)cccc1-c1nc2ccc3[nH]ncc3c2c2c1CCCC2`: the GI50 was 1.69 µM and the TGI came out at 4.94 µM.
For `O=C(N/N=C/c1cc(Cl)ccc1O)c1ccccc1Nc1ccnc(C(F)(F)F)c1`, in that order: 0.265 µM and 2.05 µM.
Take `Cc1nc2c(O)c3c(c(O)c2nc1C)C1C=CC3CC1`: the GI50 was 0.559 µM and the TGI is 1.97 µM.
For `COc1ccc2c(CCCc3ccc(Cl)cc3Cl)c3[n+](cc2c1OC)CCc1cc2c(cc1-3)OCO2`, in that order: 0.195 µM and 0.894 µM.
For `CC(C)c1[nH]nc2c(NCc3ccc(-c4ccccn4)cc3)nc(SCCN(C)C)nc12`, in that order: less than 0.0129 µM and less than 0.0238 µM.
For `O=C(NNc1nc2cc(F)cc(F)c2n2cccc12)c1cnccn1`, in that order: 0.331 µM and 2.89 µM.
For `Cc1nc2sc(C(=O)Nc3ccccc3)c(N)c2cc1C(O)c1ccccc1` (centres undefined), the GI50 was 0.233 µM and the TGI is more than 65.3 µM.
For `OC(CN1CCCC2CCCCC21)c1cc2ccccc2c2ccccc12` (centres undefined), in that order: 1.73 µM and 3.62 µM.
`COc1ccc(/C=C2\COc3ccc(O)c(O)c3C2=O)cc1OC`: the GI50 was 1.58 µM and the TGI is 4.88 µM.
The matching figures for `CC(=O)O[C@@H]1C2=C(C)C3(CC3)[C@@](C)(O)C(=O)C2=C[C@@]1(C)CO`: 0.209 µM and 0.591 µM.
The matching figures for `O=C(NCc1ccco1)C1CCN(S(=O)(=O)c2ccc(Cl)cc2)CC1`: 46 µM and more than 100 µM.
The matching figures for `C=C1C(=O)O[C@H]2[C@H]1CC/C(COC(=O)CCCCCCCC(=O)OC/C1=C/CC[C@@]3(C)O[C@H]3[C@H]3OC(=O)C(=C)[C@@H]3CC1)=C\CC[C@@]1(C)O[C@@H]21`: 2.37 µM and 6.46 µM.
As for `CC1=NN(c2cccc(Cl)c2)C(=O)/C1=C\C=C\c1ccccc1`, the GI50 is 1.66 µM and the TGI was 6.14 µM.
The matching figures for `CN(C)CC1C(=O)O[C@H]2[C@H]1CC/C(COC(=O)NCc1ccc(Cn3c(=O)sn(CCCI)c3=O)cc1)=C\CC[C@@]1(C)O[C@@H]21` (some centres undefined): 0.7 µM and 1.6 µM.
The matching figures for `[Cl][Hg][c]1ccc2ccccc2c1`: 1.46 µM and 2.84 µM.
The matching figures for `COC(=O)c1c2c(c(C)[n+]([O-])c1C)C(=O)C(NCc1ccc(F)cc1)=CC2=O`: 0.598 µM and 2.15 µM.
`Oc1ccc(Cl)cc1Sc1cc(Cl)ccc1O`: the GI50 was 3.13 µM and the TGI came out at 9.12 µM.
For `C[C@H]1COCCN1c1nc(-c2cnc(N)cc2C(F)F)nc(N2CCOCC2)n1`, in that order: 0.108 µM and 0.732 µM.
For `Cn1cc(C2=C(c3cc[nH]c3)C(=O)NC2=O)c2ccccc21`, in that order: 11.9 µM and more than 25 µM.
For `O=C(N=Nc1c(Cl)c(O)c2ccccc2c1O)C(=O)Nc1cccc(C(F)(F)F)c1`, in that order: 4.16 µM and 15.3 µM.
Take `Cc1c(Cl)cccc1NC(=O)c1sc2nc3c(cc2c1N)C(=O)CCC3`: the GI50 was 0.0453 µM and the TGI came out at 71.7 µM.
The matching figures for `Cc1cc(Cl)nc(N(CCCNc2ccnc3cc(Cl)ccc23)Cc2cccs2)n1`: 1.04 µM and 4.25 µM.
The matching figures for `CCN(CC)S(=O)(=O)c1cccc(-c2ccc3c(NC(=O)C4CC4)n[nH]c3c2)c1`: 1.22 µM and more than 6.25 µM.
The matching figures for `COc1cc2c3c(n([C@@H]4CCOC4)c(=O)c2cc1OC)-c1cc2c(cc1C3=O)OCO2`: less than 0.01 µM and 0.0949 µM.
As for `COCCNCc1ccc(-c2cc3nccc(Oc4ccc(NC(=O)C5(C(=O)Nc6ccc(F)cc6)CC5)cc4F)c3s2)nc1`, the GI50 is 1.74 µM and the TGI was 3.41 µM.
For `CCn1cc(C(=O)N/N=C/c2cccs2)c(=O)c2cc(F)c(N3CCNC(C)C3)c(F)c21` (centres undefined), in that order: 1.66 µM and 3.27 µM.
For `COc1cc2c(NC3CCN(C(C)C)CC3)nc(C3CCCCC3)nc2cc1OCCCN1CCCC1`, in that order: 1.42 µM and 3.17 µM.
For `c1cc(C2CCCCC2)ccc1-c1cnc2nonc2n1`, in that order: 0.316 µM and 1.36 µM.
`C(=C\c1ccncc1)/c1ccncc1`: the GI50 is more than 100 µM and the TGI was more than 100 µM.
In the case of `CC(C)(O)CCc1cccc(C(=O)c2cnn(-c3ccc(F)cc3)c2N)c1`, the GI50 was 13.2 µM and the TGI was more than 25 µM.
For `CN(C)c1cc2c(Nc3ccc4c(cnn4Cc4ccccc4)c3)ncnc2cn1`, in that order: 0.136 µM and 1.16 µM.
Regarding `CC1=CC(C)(C)Nc2ccc(Cc3ccc4c(c3)C(C)=CC(C)(C)N4)cc21`, the GI50 is 3.81 µM and the TGI was found to be 16.2 µM.
For the molecule `CSc1nnc(-c2cc3c([nH]c4ccccc43)c(-c3cccc(O)c3)n2)n1-c1ccc(C)cc1`, the GI50 was 3.7 µM and the TGI turned out to be 33.7 µM.
The matching figures for `Cc1ccc2c(n1)C(=O)C(Cl)=C(Nc1cc(C(F)(F)F)cc(C(F)(F)F)c1)C2=O`: 2.01 µM and 4.57 µM.
The matching figures for `COc1cccc(N2CCN(c3ncnc4cc[nH]c34)CC2)c1`: 0.215 µM and 10.2 µM.
For `Cc1ccc(N=Nc2c(O)ccc3n[nH]nc23)cc1`, in that order: 4.14 µM and 49 µM.
